The subject of one assay is dgt-14 soybean plants. Description: Glyphosate tolerance of dgt-14 soybean. In kind it is in vivo, Glycine max. The following applies: sprayed. As for the experimental part:
Terminal leaflets of selected plantlets are treated topically (leaf paint technique) with a herbicide to screen for putative transformants. The screened plantlets are transferred to the greenhouse, allowed to acclimate and then leaf-painted with a herbicide to reconfirm tolerance. These putative transformed T0 plants are sampled and molecular analyses is used to confirm the presence of the selectable marker and the dgt-14 transgene. Several events are identified as containing the transgenes. These T0 plants are advanced for further analysis and allowed to self fertilize in the greenhouse to give rise to T1 seed. Soybean plants containing the dgt-14 transgene are obtained. The dgt-14 soybean plants are sprayed with varying concentrations of glyphosate and shown to provide tolerance to glyphosate at concentrations up to 3360 g ae/ha.

Assay [1] deals with Non-transformed control Arabidopsis (cv. Columbia). Description: Postemergence glyphosate tolerance, visual injury. In kind it is in vivo, Arabidopsis thaliana. To be noted: 840 g ae/ha, 2 weeks after application.
Assay [2] has as its target Triticum aestivum (wheat) EPSP synthase DGT-7 v5, native (GENBANK EU977181), SEQ ID NO: 60 (Triticum aestivum, UniProt B5M6A1). Description: In vitro kinetic assay (inorganic phosphate production, malachite green). In kind it is biochemical. An excerpt:
(§1) FIG. 1 depicts a partial sequence alignment of DGT-14 (SEQ ID NO:46), DGT-11 (SEQ ID NO:47), DGT-12 (SEQ ID NO:49), DGT-18 (SEQ ID NO:50), DGT-29 (SEQ ID NO:53), and DGT-30 (SEQ ID NO:52) to other EPSP synthase enzymes, such as; grg-23 (SEQ ID NO:54; derived from U.S. Pat. No. 7,834,249), CP4 (SEQ ID NO:48; GENBANK ACC NO: AEM75108.1) from Agrobacterium tumefaciens, DGT-3 (SEQ ID NO:57; GENBANK ACC NO: P17688) from Brassica napus, DGT-1 (SEQ ID NO:56) from Glycine max, DGT-7 (SEQ ID NO:55; GENBANK ACC NO: EU977181) from Triticum aestivum, and aroA (SEQ ID NO:51; Padgette et al., (1991); Eschenburg et al., (2002); Priestman et al., (2005); Haghani et al., (2008) from Escherichia coli. All six DGT enzymes (DGT-14, DGT-11, DGT-12, DGT-18, DGT-30, and DGT-29) share a conserved alanine at the aroA EPSP synthase enzyme amino acid position 96. The location of this amino acid is indicated by an asterisk, and the amino acid residue is underlined.
(§2) The location of the amino acid residue which was mutated from glycine to alanine is indicated by the first asterisk. The location of the amino acid residue which was mutated from threonine to isoleucine is indicated by the second asterisk. The location of the third amino acid residue which was mutated from proline to serine is indicated by the third asterisk.
(§3) The following Class I enzymes: DGT-1 from Glycine max, DGT-3 from Brassica napus (GENBANK ACC NO: P17688), and DGT-7 from Triticum aestivum (GENBANK ACC NO: EU977181) were used as a comparison. The Class I EPSP synthase enzymes and mutant variants thereof were synthesized and evaluated. A mutation introduced into the plant EPSP synthase enzymes consisted of the Glycine to Alanine mutation made within the EPSP synthase enzyme at a similar location as that of the G96A mutation from the E. coli version of the enzyme. In addition, Threonine to Isoleucine and Proline to Serine mutations were introduced within these Class I EPSP synthase enzymes at analogous positions as that of amino acid 97 (T to I) and amino acid 101 (P to S) in the EPSP synthase of E. coli as described in Funke et al., (2009).
(§4) Additional constructs containing the dgt-1, dgt-3 and dgt-7 were synthesized. These constructs were used for in vitro testing of the dgt-1 v5, dgt-1 v6, dgt-1 v7, dgt-1 v8, dgt-3 v6, dgt-3 v7, dgt-3 v8, dgt-7 v5, dgt-7 v6, dgt-7 v7, and dgt-7 v8 gene sequences were outsourced to GeneArt for synthesis and cloning. The synthesized genes were cloned into the pET28 expression vector. […]

For assay [3], the target named is Glycine max (soybean) EPSP synthase DGT-1 v5, native, SEQ ID NO: 59 (Glycine max, UniProt I1J7U9). The assay is described as above. In kind it is biochemical.
Description: as §1, §2, §3, §4

Assay [4] deals with bacterial EPSP synthase DGT-11 v6, native (GENBANK YP_989551.1), SEQ ID NO:5 (Bartonella bacilliformis, UniProt A0ABN0IFN8). The assay is described as above. As for the experimental part:
The synthesized genes were cloned into the pET28 expression vector.
Recombinant DGT proteins were overexpressed in Rosetta2™ (DE3) cells (Novagen, Madison, Wis.) from the constructs described above. A single colony was used to inoculate 50 mL starter cultures of LB containing chloramphenicol (25 μg/mL) and kanamycin (50 μg/mL) which were cultivated overnight at 37° C. The overnight cultures were used to inoculate 1 L of LB containing chloramphenicol (25 μg/mL) and kanamycin (50 μg/mL). The cultures were grown at 37° C. to an O.D.600=0.6 then placed in an ice water bath for 10 minutes. Expression of the target proteins was achieved by addition of IPTG to a final concentration of 500 μM. Induction was allowed to proceed overnight at 20° C. followed by harvesting via centrifugation at 8,000 rpm for 20 minutes. The cell pellets were stored at −80° C. until required for purification. All purification steps were carried out at 4° C.

For assay [5], the target named is Mariprofundus ferrooxydans EPSP synthase DGT-14 variant DGT-14 v6 (G101A), SEQ ID NO:1 (Mariprofundus ferrooxydans, UniProt Q0EYT4, G101A). The description is as above. In kind it is biochemical. The following applies: IC50 (glyphosate), values greater than 50 are estimates.
Assay [6] deals with Arabidopsis transformed with TraP9 v2::dgt-14 (pDAB105527). The experiment in a line: Postemergence glyphosate tolerance, visual injury. In kind it is in vivo, Arabidopsis thaliana. To be noted: 2 weeks after application.

pIC50: −log10 of the molar value.

The text below walks through data of patent US9873883B2, “Glyphosate resistant plants and associated methods” (Dow AgroSciences LLC, priority 2012, dated 2018).

Regarding `O=C(O)CNCP(=O)(O)O` [glyphosate, N-(phosphonomethyl)glycine], in the assay on dgt-14 soybean plants, the “tolerance to glyphosate at concentrations up to” value was “up to 3360 g ae/ha”. The “Visual % injury (Ave)” value is recorded as 100.0% in assay [1] (T2 study); 100.0% in assay [1] (T3 study); 0.0% in assay [6] (T2, 840 g ae/ha); 0.0% in assay [6] (T3, 840 g ae/ha). The pIC50 in assay [2] is around 4.70; in assay [3], around 4.70; in assay [4], 2.00; in assay [5] (at 60 μM PEP), below 1.10; in assay [5] (at 1 mM PEP), below 1.10.
For the molecule `C=C(OP(=O)(O)O)C(=O)O` [PEP, phosphoenolpyruvate], the kcat/Km came to 215000 M⁻¹ s⁻¹ in assay [2] (PEP, pH 7.5, 1 mM S3P) and 74100 M⁻¹ s⁻¹ in assay [3] (PEP, pH 7.5, 1 mM S3P).
